This note sets out measurements from patent publication US7399754B2, “N2-quinoline or isoquinoline substituted purine derivatives” (priority 2005, dated 2008).

Values after ≈ are worked out from the molar mass of the structure shown.

Data set [1] has as its system H-22 liver cancer. The data set can be described thus: Subcutaneous H-22 liver cancer growth in mice. Conditions: 50 mg/kg daily intralesional, 14 days treatment period. In kind it is in vivo. The procedure: (§1) To determine if Compound I could inhibit primary tumor growth, syngeneic mice (C57B 16/J) bearing subcutaneous Lewis lung carcinomas and H-22 liver cancer were treated with Compound I with daily intralesional injections of (50 mg/kg) 1 mg of Compound I per 20 g mouse body weight.

The test system of data set [2] is malignant cells. In words: Clonal proliferation, cell cycle and apoptosis of malignant cells in vitro. Type of data set: cell-based. An excerpt:
(§2) Pulse-exposure studies, using methods as described in Kubota et al., Cancer Res. 1998; 58: 3370-3375 and Campbell et al., J. Mol. Endocrinol.

The test system of data set [3] is LNCap prostate cancer cells. The data set can be described thus: Pulse-exposure clonal growth study. Type of data set: cell-based.
Description: as §2

For data set [4], the system named is Du145 prostate cancer cells. The data set can be described thus: Pulse-exposure clonal growth study. Type of data set: cell-based.
Description: as §2

Data set [5] concerns PC-3 prostate cancer cells. In words: Pulse-exposure clonal growth study. In kind it is cell-based. Conditions: PC-3, pulse-exposure.
Description: as §2

The test system of data set [6] is Lewis lung carcinoma cells. In words: MTT and SRB growth inhibition assays. Type of data set: cell-based, murine. Conditions: Mus musculus. The procedure: (§3) The anti-cancer activities of COMPOUND I were evaluated using the microtetrazoline (MTT) and sulforhodamine B (SRB) assays.
The subject of data set [7] is Lewis lung carcinomas. The data set can be described thus: Subcutaneous Lewis lung carcinoma growth in mice. Type of data set: in vivo. The conditions noted are these: for Tumor vol.: daily intralesional injections 50 mg/kg. The procedure: as §1
Inhibition of primary tumor growth was first observed at dose of 20 mg/kg/day. Increased doses of Compound I correlated with increased efficacy of tumor inhibition. Inhibition of metastatic growth occurred at doses of approximately 20 mg/kg/day. […] In contrast, tumor in animals treated with saline grew rapidly in size to >6.000 mm^3, leading to the demise of all animals on day 17 after tumor implantation.

Data set [8] has as its system human cancer cells. The data set can be described thus: Human cancer cells transplanted to nude mice. In kind it is in vivo. An excerpt:
The in vivo anti-cancer activities of COMPOUND I were further evaluated using various other human cancer cells transplanted to nude mice.

Data set [9] concerns leukemia cells. In words: MTT and SRB growth inhibition assays. In kind it is cell-based. The procedure:
as §3

Data set [10] concerns H-22 liver cancer cells. The data set can be described thus: MTT and SRB growth inhibition assays. In kind it is cell-based. The procedure:
as §3

In data set [11] the test system is most cancer types. In words: MTT and SRB growth inhibition assays, many cancer types. Type of data set: cell-based. The procedure:
as §3

For the compound `c1cnc2ccc(Nc3nc(NC4CC4)c4nc[nH]c4n3)cc2c1` [Compound I], the “growth of H-22 liver cancer in mice” value in [1] is “primary tumor growth was inhibited”. For the same compound, the “clonal proliferation of a variety of malignant cells in vitro” value in data set [2] (prostate and breast cancers, neuroepithelioma, melanoma, leukemia) is “inhibit the clonal proliferation”. Also, the “cell cycle arrest and apoptosis” value in data set [2] (some of these cells) is “induces cell cycle arrest and apoptosis”. In addition, the “50% inhibition (ED50) of clonal growth” value in data set [3], in data set [4] and in data set [5] was “approximately 18 μg/ml” throughout. The half-inhibitory concentration (IC50) – broadly, the concentration that gives 50% inhibition – was 2.81 µg/mL (≈ 8.85 µM) in data set [6], 2.5 µg/mL (≈ 7.88 µM) in data set [9], 2.24 µg/mL (≈ 7.06 µM) in data set [10] and 500 to 3000 nM in data set [11] (most cancer types). Moreover, the Tumor vol. amounted to 200 mm^3 in data set [7] (day 2); 300 mm^3 in data set [7] (day 4); 500 mm^3 in data set [7] (day 6); 700 mm^3 in data set [7] (day 8); 900 mm^3 in data set [7] (day 10); 1200 mm^3 in [7] (day 12). Also, the Tumor vol. is reported as 1500 mm^3 in data set [7] (day 14), 1800 mm^3 in data set [7] (day 16) and 2200 mm^3 in data set [7] (day 17). Also, the toxicity entry in data set [7] (treated tumor-bearing mice) is “no detectable toxicity”. Also, the “dose at which inhibition of metastatic growth occurred” value in data set [7] (tumor-bearing mice) is on record as “approximately 20 mg/kg/day”. The “dose at which inhibition of primary tumor growth was first observed” value in [7] (tumor-bearing mice) came out at 20 mg/kg/day. In data set [8], the “in vivo growth of human cancers” value is “inhibits in vivo growth of many types of human cancers”. The “growth in vitro of many types of cancers” value in [11] (MTT and SRB assays) is “significantly inhibited growth”.
